{"source": "paper PMC8330742", "about": "“New benzothieno[2,3-c]pyridines as non-steroidal CYP17 inhibitors: design, synthesis, anticancer screening, apoptosis induction, and in silico ADME profile studies” (Journal of Enzyme Inhibition and Medicinal Chemistry, 2021)", "experiment_in_all_cases": "NCI-60 SRB screen;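 for IC50: half-maximal inhibitory concentration read as cell viability unlike GI50 net growth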", "key": {"[1]": {"system": "CCRF-CEM", "assay_type": "cell-based"}, "[2]": {"system": "HL-60(TB)", "assay_type": "cell-based, human"}, "[3]": {"system": "K-562", "assay_type": "cell-based, human", "conditions": "K-562"}, "[4]": {"system": "MOLT-4", "assay_type": "cell-based", "conditions": "MOLT-4"}, "[5]": {"system": "SR", "assay_type": "cell-based"}, "[6]": {"system": "A549/ATCC", "assay_type": "cell-based, human"}, "[7]": {"system": "EKVX", "assay_type": "cell-based, human"}, "[8]": {"system": "HOP-62", "assay_type": "cell-based, human", "conditions": "HOP-62"}, "[9]": {"system": "HOP-92", "assay_type": "cell-based, human", "conditions": "HOP-92"}, "[10]": {"system": "NCI-H226", "assay_type": "cell-based, human", "conditions": "NCI-H226"}, "[11]": {"system": "NCI-H23", "assay_type": "cell-based, human", "conditions": "NCI-H23"}, "[12]": {"system": "NCI-H322M", "assay_type": "cell-based, human"}, "[13]": {"system": "NCI-H460", "assay_type": "cell-based, human", "conditions": "NCI-H460"}, "[14]": {"system": "NCI-H522", "assay_type": "cell-based, human", "conditions": "NCI-H522"}, "[15]": {"system": "COLO 205", "assay_type": "cell-based, human", "conditions": "COLO 205"}, "[16]": {"system": "HCC-2998", "assay_type": "cell-based, human", "conditions": "HCC-2998"}, "[17]": {"system": "HCT-116", "assay_type": "cell-based, human", "conditions": "HCT-116"}, "[18]": {"system": "HCT-15", "assay_type": "cell-based, human", "conditions": "HCT-15"}, "[19]": {"system": "HT-29", "assay_type": "cell-based"}, "[20]": {"system": "KM12", "assay_type": "cell-based, human", "conditions": "KM12"}, "[21]": {"system": "SW-620", "assay_type": "cell-based", "conditions": "SW-620"}, "[22]": {"system": "SF-268", "assay_type": "cell-based, human", "conditions": "SF-268"}, "[23]": {"conditions": "Homo sapiens, single dose 10^−5 M, read-out: Growth inhibition (%)"}, "[24]": {"conditions": "Homo sapiens, HT-29, HT29, five dose"}}}
{"smiles": "N#CC1C(=O)NC(c2ccccc2[N+](=O)[O-])c2sc3c(F)cccc3c21", "note": "(stereo not drawn) [Compound 5c, 4-Cyano-8-fluoro-1-(2-nitrophenyl)-1,2-dihydro[1]benzothieno[2,3-c] pyridin-3(4H)-one]", "values": [{"measurement": "GI50", "setting": "[1]; Homo sapiens, five dose", "result": 26.3, "unit": "µM"}, {"measurement": "IC50", "setting": "[1]; Homo sapiens, five dose", "result": 37.2, "unit": "µM"}, {"measurement": "LC50", "setting": "[1]; Homo sapiens, five dose", "result": "> 100", "unit": "µM"}, {"measurement": "inhibition at 10 µM", "setting": "[1]; [23]", "result": 13.2, "unit": "%"}, {"measurement": "TGI", "setting": "[1]; five dose", "result": 100, "unit": "µM"}, {"measurement": "TGI", "setting": "[2]; HL-60(TB), five dose", "result": 100, "unit": "µM"}, {"measurement": "GI50", "setting": "[2]; Homo sapiens, HL-60", "result": 14.2, "unit": "µM"}, {"measurement": "IC50", "setting": "[2]; Homo sapiens, HL-60", "result": 28.2, "unit": "µM"}, {"measurement": "inhibition at 10 µM", "setting": "[2]; Homo sapiens, HL-60, read-out: Growth inhibition (%)", "result": 18.8, "unit": "%"}, {"measurement": "GI50", "setting": "[3]; Homo sapiens, K562, five dose", "result": 1.98, "unit": "µM"}, {"measurement": "IC50", "setting": "[3]; Homo sapiens, K562, five dose", "result": 3.16, "unit": "µM"}, {"measurement": "inhibition at 10 µM", "setting": "[3]; Homo sapiens, K562, single dose 10^−5 M, read-out: Growth inhibition (%)", "result": 64.1, "unit": "%"}, {"measurement": "TGI", "setting": "[3]; five dose", "result": 100, "unit": "µM"}, {"measurement": "GI50", "setting": "[4]; Homo sapiens, five dose", "result": 19.1, "unit": "µM"}, {"measurement": "IC50", "setting": "[4]; Homo sapiens, five dose", "result": 30.9, "unit": "µM"}, {"measurement": "LC50 (50% lethal concentration)", "setting": "[4]; Homo sapiens, five dose", "result": "> 100", "unit": "µM"}, {"measurement": "inhibition at 10 µM", "setting": "[4]; [23]", "result": 13.5, "unit": "%"}, {"measurement": "TGI", "setting": "[4]; five dose", "result": 100, "unit": "µM"}, {"measurement": "GI50", "setting": "[5]; Homo sapiens, five dose", "result": 14.1, "unit": "µM"}, {"measurement": "IC50", "setting": "[5]; Homo sapiens, five dose", "result": 25.1, "unit": "µM"}, {"measurement": "LC50", "setting": "[5]; Homo sapiens, five dose", "result": "> 100", "unit": "µM"}, {"measurement": "inhibition at 10 µM", "setting": "[5]; [23]", "result": 33.2, "unit": "%"}, {"measurement": "TGI", "setting": "[5]; five dose", "result": 100, "unit": "µM"}, {"measurement": "GI50", "setting": "[6]; Homo sapiens, five dose", "result": 1.31, "unit": "µM"}, {"measurement": "IC50", "setting": "[6]; Homo sapiens, five dose", "result": 2.34, "unit": "µM"}, {"measurement": "inhibition at 10 µM", "setting": "[6]; [23]", "result": 52.8, "unit": "%"}, {"measurement": "TGI", "setting": "[6]; five dose", "result": 100, "unit": "µM"}, {"measurement": "GI50", "setting": "[7]; Homo sapiens, five dose", "result": 2.69, "unit": "µM"}, {"measurement": "IC50", "setting": "[7]; Homo sapiens, five dose", "result": 13.8, "unit": "µM"}, {"measurement": "inhibition at 10 µM", "setting": "[7]; [23]", "result": 35.3, "unit": "%"}, {"measurement": "TGI", "setting": "[7]; five dose", "result": 100, "unit": "µM"}, {"measurement": "TGI", "setting": "[8]; five dose", "result": 100, "unit": "µM"}, {"measurement": "GI50", "setting": "[8]; Homo sapiens, five dose", "result": 10, "unit": "µM"}, {"measurement": "IC50", "setting": "[8]; Homo sapiens, five dose", "result": 22.9, "unit": "µM"}, {"measurement": "inhibition at 10 µM", "setting": "[8]; [23]", "result": 66.3, "unit": "%"}, {"measurement": "TGI", "setting": "[9]; five dose", "result": 100, "unit": "µM"}, {"measurement": "GI50", "setting": "[9]; Homo sapiens, five dose", "result": 12.6, "unit": "µM"}, {"measurement": "IC50", "setting": "[9]; Homo sapiens, five dose", "result": 79.4, "unit": "µM"}, {"measurement": "inhibition at 10 µM", "setting": "[9]; [23]", "result": 115, "unit": "%"}, {"measurement": "GI50", "setting": "[10]; Homo sapiens, five dose", "result": 0.27, "unit": "µM"}, {"measurement": "IC50", "setting": "[10]; Homo sapiens, five dose", "result": 0.871, "unit": "µM"}, {"measurement": "inhibition at 10 µM", "setting": "[10]; [23]", "result": 31.2, "unit": "%"}, {"measurement": "TGI", "setting": "[10]; five dose", "result": 100, "unit": "µM"}, {"measurement": "GI50", "setting": "[11]; Homo sapiens, five dose", "result": 7.33, "unit": "µM"}, {"measurement": "IC50", "setting": "[11]; Homo sapiens, five dose", "result": 19.5, "unit": "µM"}, {"measurement": "inhibition at 10 µM", "setting": "[11]; [23]", "result": 32.9, "unit": "%"}, {"measurement": "TGI", "setting": "[11]; five dose", "result": 100, "unit": "µM"}, {"measurement": "GI50", "setting": "[12]; Homo sapiens, five dose", "result": 7.37, "unit": "µM"}, {"measurement": "IC50", "setting": "[12]; Homo sapiens, five dose", "result": 23.4, "unit": "µM"}, {"measurement": "inhibition at 10 µM", "setting": "[12]; [23]", "result": 98, "unit": "%"}, {"measurement": "TGI", "setting": "[12]; five dose", "result": 100, "unit": "µM"}, {"measurement": "GI50", "setting": "[13]; Homo sapiens, five dose", "result": 0.29, "unit": "µM"}, {"measurement": "IC50", "setting": "[13]; Homo sapiens, five dose", "result": 0.372, "unit": "µM"}, {"measurement": "inhibition at 10 µM", "setting": "[13]; [23]", "result": 11.5, "unit": "%"}, {"measurement": "TGI", "setting": "[13]; five dose", "result": 100, "unit": "µM"}, {"measurement": "GI50", "setting": "[14]; Homo sapiens, five dose", "result": 18.4, "unit": "µM"}, {"measurement": "IC50", "setting": "[14]; Homo sapiens, five dose", "result": 41.7, "unit": "µM"}, {"measurement": "inhibition at 10 µM", "setting": "[14]; [23]", "result": 17.3, "unit": "%"}, {"measurement": "TGI", "setting": "[14]; five dose", "result": 100, "unit": "µM"}, {"measurement": "TGI", "setting": "[15]; five dose", "result": 100, "unit": "µM"}, {"measurement": "GI50", "setting": "[15]; Homo sapiens, five dose", "result": 10.3, "unit": "µM"}, {"measurement": "IC50", "setting": "[15]; Homo sapiens, five dose", "result": 17.8, "unit": "µM"}, {"measurement": "inhibition at 10 µM", "setting": "[15]; [23]", "result": 29.9, "unit": "%"}, {"measurement": "TGI", "setting": "[16]; five dose", "result": 94.90, "unit": "µM"}, {"measurement": "GI50", "setting": "[16]; Homo sapiens, five dose", "result": 17.4, "unit": "µM"}, {"measurement": "IC50", "setting": "[16]; Homo sapiens, five dose", "result": 33.9, "unit": "µM"}, {"measurement": "inhibition at 10 µM", "setting": "[16]; [23]", "result": 6.16, "unit": "%"}, {"measurement": "TGI", "setting": "[17]; five dose", "result": 44.50, "unit": "µM"}, {"measurement": "GI50", "setting": "[17]; Homo sapiens, five dose", "result": 0.14, "unit": "µM"}, {"measurement": "IC50", "setting": "[17]; Homo sapiens, five dose", "result": 0.195, "unit": "µM"}, {"measurement": "inhibition at 10 µM", "setting": "[17]; [23]", "result": 89, "unit": "%"}, {"measurement": "TGI", "setting": "[18]; five dose", "result": 100, "unit": "µM"}, {"measurement": "GI50", "setting": "[18]; Homo sapiens, five dose", "result": 11.4, "unit": "µM"}, {"measurement": "IC50", "setting": "[18]; Homo sapiens, five dose", "result": 16.6, "unit": "µM"}, {"measurement": "inhibition at 10 µM", "setting": "[18]; [23]", "result": 12.3, "unit": "%"}, {"measurement": "TGI", "setting": "[19]; HT29, five dose", "result": 100, "unit": "µM"}, {"measurement": "GI50", "setting": "[19]; [24]", "result": 19.6, "unit": "µM"}, {"measurement": "IC50", "setting": "[19]; [24]", "result": 25.7, "unit": "µM"}, {"measurement": "LC50 (concentration killing 50% of cells)", "setting": "[19]; [24]", "result": "> 100", "unit": "µM"}, {"measurement": "inhibition at 10 µM", "setting": "[19]; Homo sapiens, HT-29, single dose 10^−5 M, read-out: Growth inhibition (%)", "result": 14.7, "unit": "%"}, {"measurement": "GI50", "setting": "[20]; Homo sapiens, five dose", "result": 19.9, "unit": "µM"}, {"measurement": "IC50", "setting": "[20]; Homo sapiens, five dose", "result": 32.4, "unit": "µM"}, {"measurement": "inhibition at 10 µM", "setting": "[20]; [23]", "result": 8.58, "unit": "%"}, {"measurement": "TGI", "setting": "[20]; five dose", "result": 100, "unit": "µM"}, {"measurement": "GI50", "setting": "[21]; Homo sapiens, five dose", "result": 0.37, "unit": "µM"}, {"measurement": "IC50", "setting": "[21]; Homo sapiens, five dose", "result": 0.676, "unit": "µM"}, {"measurement": "LC50 (50% lethal concentration)", "setting": "[21]; Homo sapiens, five dose", "result": "> 100", "unit": "µM"}, {"measurement": "inhibition at 10 µM", "setting": "[21]; [23]", "result": 88.1, "unit": "%"}, {"measurement": "TGI", "setting": "[21]; five dose", "result": 100, "unit": "µM"}, {"measurement": "GI50", "setting": "[22]; Homo sapiens, five dose", "result": 16.4, "unit": "µM"}, {"measurement": "IC50", "setting": "[22]; Homo sapiens, five dose", "result": 46.8, "unit": "µM"}, {"measurement": "inhibition at 10 µM", "setting": "[22]; [23]", "result": 14.4, "unit": "%"}, {"measurement": "TGI", "setting": "[22]; five dose", "result": 100, "unit": "µM"}]}
